Activity calls are given as the source filed them.
Experiments:
[1] = inhibitors of firefly luciferase expression or activity, dose response, H4 neuroglioma cells, luminescence (AID 1990); assay type: functional, cell-based
[2] = Luminescence Cell-Based Dose Response HTS to Identify Inhibitors of 5'UTR Stem-Loop Driven Prion Protein mRNA Translation in H4 Neuroglioblastoma Cells. [Related pubchem assays: 1827 (Project Summary), 1813 (Primary HTS)]; assay type: functional
[3] = inhibitors of SNCA 5'UTR-driven reporter translation, confirmation, H4 neuroglioma cells, luminescence (AID 1988); assay type: functional, cell-based
[4] = molecular target: T1, Heat shock factor protein 1 (Mus musculus, UniProt P38532); experiment: HSF1 potentiators in luciferase reporter cells, confirmation, cell-based, NIH3T3, luminescence, dose retest (AID 435004); assay type: functional;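 also: stress induced by proteasome inhibitor MG132 added 30 min after compound; luciferase reporter driven by HSF1 response element in NIH3T3 cells; actives raise luminescence as potentiators of the MG132 stress response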
T1 sequence (P38532 whole entry): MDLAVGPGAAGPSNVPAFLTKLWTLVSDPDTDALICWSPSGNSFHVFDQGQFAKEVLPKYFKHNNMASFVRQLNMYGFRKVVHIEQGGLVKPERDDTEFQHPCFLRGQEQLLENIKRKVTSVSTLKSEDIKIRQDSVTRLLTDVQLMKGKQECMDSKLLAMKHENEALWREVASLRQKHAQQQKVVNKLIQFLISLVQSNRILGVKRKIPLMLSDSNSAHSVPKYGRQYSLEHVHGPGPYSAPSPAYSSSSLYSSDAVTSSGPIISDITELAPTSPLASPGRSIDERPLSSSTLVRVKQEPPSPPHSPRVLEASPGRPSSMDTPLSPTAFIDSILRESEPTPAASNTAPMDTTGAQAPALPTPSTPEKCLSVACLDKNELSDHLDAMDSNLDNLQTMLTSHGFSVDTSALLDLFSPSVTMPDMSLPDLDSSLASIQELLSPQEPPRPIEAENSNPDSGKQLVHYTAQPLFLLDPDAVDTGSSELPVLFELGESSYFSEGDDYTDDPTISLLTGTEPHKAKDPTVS

[5] = molecular target: T2, Microphthalmia-associated transcription factor (Homo sapiens, UniProt O75030); experiment: TRPM1 promoter luciferase signal decrease, dose response, MITF inhibitor project, cell-based, SK-MEL-5, cherry-picked, set 3 (AID 493073); assay type: functional
T2 sequence (O75030 whole entry): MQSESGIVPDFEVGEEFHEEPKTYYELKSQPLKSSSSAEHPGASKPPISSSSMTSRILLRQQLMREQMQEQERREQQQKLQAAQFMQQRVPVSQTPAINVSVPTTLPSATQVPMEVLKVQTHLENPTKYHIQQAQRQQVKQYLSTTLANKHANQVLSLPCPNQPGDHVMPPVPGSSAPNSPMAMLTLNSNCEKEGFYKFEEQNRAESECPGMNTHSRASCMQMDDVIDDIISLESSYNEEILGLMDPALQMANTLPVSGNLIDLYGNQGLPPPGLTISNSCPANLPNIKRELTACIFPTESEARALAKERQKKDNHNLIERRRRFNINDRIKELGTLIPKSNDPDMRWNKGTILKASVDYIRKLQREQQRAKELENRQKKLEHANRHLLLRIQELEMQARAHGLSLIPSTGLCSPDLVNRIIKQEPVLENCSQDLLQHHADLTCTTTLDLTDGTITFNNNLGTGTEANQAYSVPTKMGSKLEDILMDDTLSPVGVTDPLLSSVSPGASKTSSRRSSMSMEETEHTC

HEK293 [6] = experiment: cytotoxicity in HEK293T NF-kB-Luc cells, SAR follow-up, cytotoxicity control for NF-kB activator project, cell-based, resazurin fluorescence (AID 493251); assay type: functional; details: Homo sapiens
Jurkat = experiment: SAR Analysis of small molecule inhibitors of T-cell specific antigen receptor-induced NF-kB activation in a Jurkat cell line using a luminescence assay - Set 2. [Related pubchem assays (depositor defined):AID435003, AID435012, AID465]; assay type: functional, cell-based; details: Homo sapiens
HEK293 [7] = experiment: SAR Analysis of small molecule inhibitors of T-cell specific antigen receptor-induced NF-kB activation in a HEK-293T cell line using a luminescence assay - Set 2. [Related pubchem assays (depositor defined):AID435003, AID435012, AID489026]; assay type: functional, cell-based; details: Homo sapiens
[8] = molecular target: T3, Beta-2 adrenergic receptor (Homo sapiens, UniProt P07550); experiment: Dose response for HTS for Beta-2AR agonists via FAP method from Powderset1.; assay type: functional
[9] = molecular target: T3, Beta-2 adrenergic receptor; experiment: beta2AR agonists driving receptor internalization, dose response, cell-based, FAP fluorogen, flow cytometry, cherry pick 1 (AID 588763); assay type: functional
[10] = Shn3 3'UTR reporter inhibitors, dose response, cell-based, Clone20 osteoblasts, firefly luciferase, cherry-picked (AID 624132); assay type: functional;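 also: firefly luciferase luminescence from reporter carrying the Shn3 3'UTR in osteoblasts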
[11] = HepG2 cell cytotoxicity, dose response, cytotoxicity control for Shn3 inhibitor project, CellTiter-Glo, cherry-picked (AID 624134); assay type: functional, cell-based
[12] = control 3'UTR Renilla luciferase suppression, dose response, counter-screen for Shn3 inhibitor project, cell-based, Clone20-Shn3RL, cherry-picked (AID 624133); assay type: functional
HEK293 [13] = experiment: cells; assay type: functional, cell-based; details: Homo sapiens
[14] = molecular target: T4, Nuclear receptor subfamily 0 group B member 1 (Homo sapiens, UniProt P51843); experiment: Luminescence-based cell-based high throughput dose response assay for inhibitors of the orphan nuclear receptor subfamily 0, group B, member 1 (DAX1; NR0B1). [Related pubchem assays (depositor defined):AID504766, AID504790]; assay type: functional
T4 sequence (P51843 whole entry): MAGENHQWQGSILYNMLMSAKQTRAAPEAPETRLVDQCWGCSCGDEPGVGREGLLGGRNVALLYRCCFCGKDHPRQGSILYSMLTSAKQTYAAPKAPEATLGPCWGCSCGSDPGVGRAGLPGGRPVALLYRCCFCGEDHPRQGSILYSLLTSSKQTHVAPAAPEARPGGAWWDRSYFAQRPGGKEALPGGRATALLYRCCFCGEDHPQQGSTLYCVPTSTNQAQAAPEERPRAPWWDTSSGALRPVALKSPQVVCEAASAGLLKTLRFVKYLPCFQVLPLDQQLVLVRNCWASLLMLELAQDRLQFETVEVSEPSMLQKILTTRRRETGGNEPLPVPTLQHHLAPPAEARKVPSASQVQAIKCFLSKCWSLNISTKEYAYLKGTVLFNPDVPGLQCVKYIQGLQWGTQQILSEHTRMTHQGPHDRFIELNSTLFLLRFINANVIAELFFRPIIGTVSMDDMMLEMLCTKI

Hexokinase-1 = molecular target: T5, Hexokinase-1 (Homo sapiens, UniProt P19367); experiment: SAR analysis of small molecule inhibitors of hexokinase domain containing I (HKDC1) in the hexokinase 1 selectivity assay. [Related pubchem assays (depositor defined):AID493160, AID493190]; assay type: functional
T5 sequence (P19367 whole entry): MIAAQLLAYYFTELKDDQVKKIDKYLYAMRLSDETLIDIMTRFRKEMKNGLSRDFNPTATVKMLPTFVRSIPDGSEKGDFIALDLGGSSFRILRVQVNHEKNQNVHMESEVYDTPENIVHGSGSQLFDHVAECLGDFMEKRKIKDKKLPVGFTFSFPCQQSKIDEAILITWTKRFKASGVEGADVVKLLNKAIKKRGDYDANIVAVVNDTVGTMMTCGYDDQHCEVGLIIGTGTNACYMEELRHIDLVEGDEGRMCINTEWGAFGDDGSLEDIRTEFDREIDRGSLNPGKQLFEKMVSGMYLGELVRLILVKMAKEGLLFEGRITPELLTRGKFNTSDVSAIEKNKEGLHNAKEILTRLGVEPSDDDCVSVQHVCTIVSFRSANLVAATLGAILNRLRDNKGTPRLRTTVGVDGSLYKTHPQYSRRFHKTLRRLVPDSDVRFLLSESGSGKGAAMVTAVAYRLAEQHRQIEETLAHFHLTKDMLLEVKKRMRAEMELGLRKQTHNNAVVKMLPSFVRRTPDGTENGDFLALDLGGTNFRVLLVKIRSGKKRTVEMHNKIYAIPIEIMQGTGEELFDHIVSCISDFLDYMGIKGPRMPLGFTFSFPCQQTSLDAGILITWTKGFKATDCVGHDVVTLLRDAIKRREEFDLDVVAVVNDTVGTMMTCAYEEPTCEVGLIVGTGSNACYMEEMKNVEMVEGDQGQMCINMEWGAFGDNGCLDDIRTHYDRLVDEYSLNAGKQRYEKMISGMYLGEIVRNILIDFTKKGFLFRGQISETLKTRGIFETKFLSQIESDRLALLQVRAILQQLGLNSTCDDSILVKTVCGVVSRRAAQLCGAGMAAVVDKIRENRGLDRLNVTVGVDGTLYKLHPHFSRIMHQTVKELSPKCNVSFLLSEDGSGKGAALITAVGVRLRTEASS

Hexokinase HKDC1 = molecular target: T6, Hexokinase HKDC1 (Homo sapiens, UniProt Q2TB90); experiment: SAR analysis of small molecule inhibitors of hexokinase domain containing I (HKDC1). [Related pubchem assays (depositor defined):AID493160, AID493190]; assay type: functional
T6 sequence (Q2TB90 whole entry): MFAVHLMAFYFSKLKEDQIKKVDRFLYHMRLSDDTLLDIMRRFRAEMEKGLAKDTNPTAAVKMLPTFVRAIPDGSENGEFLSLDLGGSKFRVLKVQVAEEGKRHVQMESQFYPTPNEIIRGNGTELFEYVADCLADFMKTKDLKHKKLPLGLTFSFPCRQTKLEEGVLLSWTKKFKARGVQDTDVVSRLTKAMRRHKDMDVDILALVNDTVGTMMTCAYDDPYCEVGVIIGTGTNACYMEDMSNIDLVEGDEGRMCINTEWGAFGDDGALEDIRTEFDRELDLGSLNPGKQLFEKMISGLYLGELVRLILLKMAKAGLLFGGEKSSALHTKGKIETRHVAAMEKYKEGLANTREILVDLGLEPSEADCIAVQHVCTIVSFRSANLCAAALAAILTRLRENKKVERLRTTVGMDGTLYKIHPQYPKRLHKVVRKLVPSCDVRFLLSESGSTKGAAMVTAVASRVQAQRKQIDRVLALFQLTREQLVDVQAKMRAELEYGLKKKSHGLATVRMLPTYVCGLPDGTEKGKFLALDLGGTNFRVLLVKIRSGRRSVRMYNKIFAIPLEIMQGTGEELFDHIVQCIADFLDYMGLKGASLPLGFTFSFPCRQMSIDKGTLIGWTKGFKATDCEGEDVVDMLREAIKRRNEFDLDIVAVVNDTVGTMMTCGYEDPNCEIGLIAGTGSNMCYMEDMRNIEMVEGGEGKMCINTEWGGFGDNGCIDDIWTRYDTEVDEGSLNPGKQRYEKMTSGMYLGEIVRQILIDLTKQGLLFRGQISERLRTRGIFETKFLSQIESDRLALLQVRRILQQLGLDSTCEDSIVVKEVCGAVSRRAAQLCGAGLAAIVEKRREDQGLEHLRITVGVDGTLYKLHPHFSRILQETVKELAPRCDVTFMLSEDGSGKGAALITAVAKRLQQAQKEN

T3 sequence (P07550 whole entry): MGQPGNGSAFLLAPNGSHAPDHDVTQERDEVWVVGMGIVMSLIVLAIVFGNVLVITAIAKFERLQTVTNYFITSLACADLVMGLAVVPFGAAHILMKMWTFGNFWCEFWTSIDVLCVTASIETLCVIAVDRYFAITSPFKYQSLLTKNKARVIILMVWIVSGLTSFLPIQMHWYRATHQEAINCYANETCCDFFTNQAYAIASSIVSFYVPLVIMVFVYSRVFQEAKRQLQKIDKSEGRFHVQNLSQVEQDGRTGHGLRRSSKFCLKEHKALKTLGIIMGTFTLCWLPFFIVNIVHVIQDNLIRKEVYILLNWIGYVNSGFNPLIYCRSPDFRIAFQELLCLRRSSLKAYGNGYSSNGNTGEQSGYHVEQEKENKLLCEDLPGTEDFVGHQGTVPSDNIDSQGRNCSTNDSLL

O=C(Nc1ccc(-c2nc3ncccc3o2)cc1)c1ccc([N+](=O)[O-])o1
EC50 [1]: > 120 µM (not active)
EC50 [2]: > 120 µM (not active)
EC50 [3]: > 60 µM (not active)
EC50 [4]: 7.12 µM (active)
AC50 [5]: 3.63 µM (active)
IC50 (HEK293 [6]): > 80 µM (inactive)
IC50 (Jurkat): > 79 µM (inactive)
IC50 (HEK293 [7]): > 80 µM (inactive)
EC50 [8]: 0.152 µM (active)
EC50 [9]: 0.636 µM (active)
AC50 [10]: 1.34 µM (active)
AC50 [11]: 22.6 µM (active)
AC50 [12]: 11 µM (active)

COc1cccc(CNC(=O)CN(C)S(=O)(=O)c2ccc(Br)s2)c1
IC50 (HEK293 [13]): 24.6 µM (inactive)
IC50 [14]: > 67.5 µM (inactive)

O=C(Nc1cccc(C(F)(F)F)c1)c1cccc(NC(=O)c2ccc3ccccc3n2)c1
IC50 (Hexokinase-1): > 80 µM (inactive)
IC50 (Hexokinase HKDC1): > 80 µM (inactive)

— ChEMBL document CHEMBL1201862, “PubChem BioAssay data set” (2004)
